Like-named read-outs stand apart in the source and are kept apart here.
Tests used:
[1] = target: BACE 1 (Beta Secretase enzyme) (Homo sapiens (Human), UniProt P56817); experiment: In vitro enzymatic BACE FRET assay; type: biochemical; details: enzyme 0.2 nM, FRET substrate 50 nM, pH 4.2
Experimental: In Vitro Enzymatic BACE FRET (Fluorescence Resonance Energy Transfer) Assay (Enzyme Assay Data in the Example Table I)
The assay buffer used in this screen is 0.05 M acetate, pH 4.2, 10% DMSO final, 100 uM genapol (which is a nonionic detergent, below its Critical Micelle Concentration). […] This assay is effectively started by the addition of FRET substrate (50 nM) and the combination is incubated for one hour. The FRET assay is terminated with by addition of Tris buffer, which raises the pH to neutrality, and the fluorescence is determined. The FRET substrate is a peptide with commercially available fluorophore and quencher, on opposite sides of the BACE cleavage site. Proteolytic cleavage of the FRET substrate releases quenching of fluorescence (excitation […] and […]).

[2] = test system: Aβ40 in conditioned medium of cells expressing amyloid precursor protein; experiment: In vitro BACE cell-based assay (HEK cell assay), Aβ40 sandwich ELISA; details: Aβ40 in supernatant after 24 h incubation
Experimental: In Vitro BACE Cell-Based Assay
The cell-based assay measures inhibition or reduction of Aβ40 in conditioned medium of test compound treated cells expressing amyloid precursor protein.
Cells stably expressing Amyloid Precursor Protein (APP) were plated at a density of 40K cells/well in 96 well plates (Costar). The cells were cultivated for 24 hours at 37° C. and 5% CO2 in DMEM supplemented with 10% FBS. The test compounds were then added to cells in 10-point dose response concentrations with the starting concentration being either 100 μM or 10 μM. The compounds were diluted from stock solutions in DMSO and the final DMSO concentration of the test compounds on cells was 0.1%. After 24 h of incubation with the test compounds the supernatant conditioned media was collected and the Aβ 40 levels were determined using a sandwich ELISA. The IC50 of the compound was calculated from the percent of control or percent inhibition of Aβ 40 as a function of the concentration of the test compound.
The sandwich ELISA to detect Aβ 40 was performed in 96 well microtiter plates, which were pre-treated with goat anti-rabbit IgG (Pierce). The capture and detecting antibody pair that were used to detect Aβ 40 from cell supernatants were affinity purified pAb40 (Biosource) and biotinylated 6E10 (Signet Labs Inc.), respectively. The optimal concentration for the pAb40 antibody was 3 μg/ml in Superblock/TBS (Pierce) that was supplemented with 0.05% Tween 20 (Sigma).
Cellular supernatants were incubated with the capture antibody for 3 h at 4° C., followed by 3 wash steps in TBS-tween (0.05%). The detecting antibody incubation was for 2 h at 4° C., again followed by the wash steps as described previously. The final readout of the ELISA is Time-Resolved Fluorescence (counts per minute) using Delfia reagents Streptavidin-Europium and Enhancement solutions (Perkin Elmer) and the Victor 2 multilabel counter (Perkin Elmer).

[3] = average IC50, read-out: BACE 1 FRET assay
[4] = Homo sapiens, HEK293, 24 h, average IC50, read-out: HEK cell assay
[5] = class symbols, read-out: BACE 1 FRET assay (IC50 class)
[6] = Homo sapiens, HEK293, 24 h, class symbols, read-out: HEK cell assay (IC50 class)

Sequence of BACE 1 (Beta Secretase enzyme) (P56817 46-501): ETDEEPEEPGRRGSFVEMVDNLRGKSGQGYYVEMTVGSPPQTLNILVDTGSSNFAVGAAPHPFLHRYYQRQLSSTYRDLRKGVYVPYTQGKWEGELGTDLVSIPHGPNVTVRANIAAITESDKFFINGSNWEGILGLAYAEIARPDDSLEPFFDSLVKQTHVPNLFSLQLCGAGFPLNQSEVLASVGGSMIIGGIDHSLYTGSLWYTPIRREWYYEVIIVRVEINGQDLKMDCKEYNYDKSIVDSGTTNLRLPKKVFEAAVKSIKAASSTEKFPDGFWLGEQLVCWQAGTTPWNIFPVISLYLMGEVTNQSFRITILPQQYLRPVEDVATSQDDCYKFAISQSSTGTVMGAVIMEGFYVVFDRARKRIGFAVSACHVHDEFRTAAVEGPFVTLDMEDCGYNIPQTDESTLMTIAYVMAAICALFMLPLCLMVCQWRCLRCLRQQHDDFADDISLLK

IC50 [1, 3]	IC50 [2, 4]	IC50 [1, 5]	IC50 [2, 6]	IC50 ([2]; average IC50, read-out: HEK cell assay)	SMILES
22.8 nM	154 nM	–	–	–	CN1C(=O)CC2(N=C1N)c1cc(-c3cccnc3F)ccc1Oc1c2cc(-c2cccnc2F)nc1F (centres unmarked) [Example 13, 2′-amino-1-fluoro-3,7-bis(2-fluoropyridin-3-yl)-1′-methyl-1′H-spiro[chromeno[2,3-c]pyridine-5,4′-pyrimidin]-6′(5′H)-one]
–	–	> 1000 nM	> 1000 nM	–	CN1C(=N)N[C@]2(CC1=O)c1cc(Br)ccc1Oc1cnc(Cl)cc12 [Example 20-B, (R)-7-bromo-3-chloro-2′-imino-1′-methyl-2′,3′-dihydro-1′H-spiro[chromeno[2,3-c]pyridine-5,4′-pyrimidin]-6′(5′H)-one]
12.1 nM	52.3 nM	–	–	–	CN1C(=O)C[C@]2(N=C1N)c1cc(-c3cccnc3F)ccc1Oc1cnc(C3=CCCOC3)cc12 [Example 24, (S)-2′-amino-3-(5,6-dihydro-2H-pyran-3-yl)-7-(2-fluoropyridin-3-yl)-1′-methyl-1′H-spiro[chromeno[2,3-c]pyridine-5,4′-pyrimidin]-6′(5′H)-one]
0.9 nM	13.7 nM	–	–	–	CC#Cc1cncc(-c2ccc3c(c2)[C@]2(N=C(N)N(C)C2=O)c2cc(C4=CCOCC4)cc(F)c2O3)c1 (stereo in doubt) [Example 30, (4R)-2-amino-2′-(3,6-dihydro-2H-pyran-4-yl)-4′-fluoro-1-methyl-7′-(5-(1-propyn-1-yl)-3-pyridinyl)spiro[imidazole-4,9′-xanthen]-5(1H)-one, (4S)-2-amino-2′-(3,6-dihydro-2H-pyran-4-yl)-4′-fluoro-1-methyl-7′-(5-(1-propyn-1-yl)-3-pyridinyl)spiro[imidazole-4,9′-xanthen]-5(1H)-one]
1.4 nM	82 nM	–	–	–	CN1C(=O)C[C@]2(N=C1N)c1cc(-c3cccnc3F)ccc1Oc1c2cc(-c2ccnc(F)c2)nc1F [Example 19, (S)-2′-amino-1-fluoro-7-(2-fluoropyridin-3-yl)-3-(2-fluoropyridin-4-yl)-1′-methyl-1′H-spiro[chromeno[2,3-c]pyridine-5,4′-pyrimidin]-6′(5′H)-one]
0.6 nM	5 nM	–	–	–	CN1C(=O)C[C@]2(N=C1N)c1cc(-c3cccnc3F)ccc1Oc1c2cc(C2=CC(C)(C)OCC2)nc1F [Example 26, (S)-2′-amino-3-(6,6-dimethyl-3,6-dihydro-2H-pyran-4-yl)-1-fluoro-7-(2-fluoropyridin-3-yl)-1′-methyl-1′H-spiro[chromeno[2,3-c]pyridine-5,4′-pyrimidin]-6′(5′H)-one]
13.6 nM	1970 nM	–	–	–	COc1ccc2c(c1)[C@]1(N=C(N)N(C)C1=O)c1cc(-c3ccc(C)cc3)cc(F)c1O2 (mixture of isomers) [Example 29, (4R)-2-amino-4′-fluoro-7′-methoxy-1-methyl-2′-(4-methylphenyl)spiro[imidazole-4,9′-xanthen]-5(1H)-one and (4S)-2-amino-4′-fluoro-7′-methoxy-1-methyl-2′-(4-methylphenyl)spiro[imidazole-4,9′-xanthen]-5(1H)-one]
24.3 nM	1820 nM	–	–	–	CN1C(=O)[C@@]2(N=C1N)c1cc(-c3cccc(Cl)c3)ccc1Oc1c(F)cc(C3=CCOCC3)cc12 [Example 35, (4R)-2-amino-7′-(3-chlorophenyl)-2′-(3,6-dihydro-2H-pyran-4-yl)-4′-fluoro-1-methylspiro[imidazole-4,9′-xanthen]-5(1H)-one]
179 nM	4410 nM	–	–	–	CC#Cc1cncc(-c2ccc3c(c2)[C@@]2(N=C(N)N(C)C2=O)c2cc(C4=CCOCC4)cc(F)c2O3)c1 [Example 31, (4R)-2-amino-2′-(3,6-dihydro-2H-pyran-4-yl)-4′-fluoro-1-methyl-7′-(5-(1-propyn-1-yl)-3-pyridinyl)spiro[imidazole-4,9′-xanthen]-5(1H)-one]
–	–	> 1000 nM	> 1000 nM	–	CN1C(=O)CC2(N=C1N)c1cc(Br)ccc1Oc1c2cc(Cl)nc1F (centres unmarked) [Example 11, 2′-amino-7-bromo-3-chloro-1-fluoro-1′-methyl-1′H-spiro[chromeno[2,3-c]pyridine-5,4′-pyrimidin]-6′(5′H)-one]
2430 nM	6170 nM	–	–	–	CN1C(=O)C[C@@]2(N=C1N)c1cc(-c3cccnc3F)ccc1Oc1cnc(C3=CCCOC3)cc12 [Example 25, (R)-2′-amino-3-(5,6-dihydro-2H-pyran-3-yl)-7-(2-fluoropyridin-3-yl)-1′-methyl-1′H-spiro[chromeno[2,3-c]pyridine-5,4′-pyrimidin]-6′(5′H)-one]
–	–	100 to 1000 nM	> 1000 nM	–	CN1C(=O)CC2(N=C1N)c1cc(-c3cccnc3F)ccc1Oc1c2cc(Cl)nc1F (centres unmarked) [Example 12, 2′-amino-3-chloro-1-fluoro-7-(2-fluoropyridin-3-yl)-1′-methyl-1′H-spiro[chromeno[2,3-c]pyridine-5,4′-pyrimidin]-6′(5′H)-one]
225 nM	–	–	–	> 10000 nM	Cc1ccc(-c2cc(F)c3c(c2)[C@]2(N=C(N)N(C)C2=O)c2cc(-c4cccc(Cl)c4)ccc2O3)cc1 [Example 36, (4R)-2-amino-7′-(3-chlorophenyl)-4′-fluoro-1-methyl-2′-(4-methylphenyl)spiro[imidazole-4,9′-xanthen]-5(1H)-one]
2.9 nM	147 nM	–	–	–	Cc1ccc(-c2cc(F)c3c(c2)[C@@]2(N=C(N)N(C)C2=O)c2cc(-c4cccc(Cl)c4)ccc2O3)cc1 [Example 37, (4S)-2-amino-7′-(3-chlorophenyl)-4′-fluoro-1-methyl-2′-(4-methylphenyl)spiro[imidazole-4,9′-xanthen]-5(1H)-one]
0.7 nM	5 nM	–	–	–	CN1C(=O)C[C@]2(N=C1N)c1cc(-c3cccnc3F)ccc1Oc1c2cc(C2=CCOC(C)(C)C2)nc1F [Example 27, (S)-2′-amino-3-(2,2-dimethyl-3,6-dihydro-2H-pyran-4-yl)-1-fluoro-7-(2-fluoropyridin-3-yl)-1′-methyl-1′H-spiro[chromeno[2,3-c]pyridine-5,4′-pyrimidin]-6′(5′H)-one]
1.4 nM	6.3 nM	–	–	–	CN1C(=O)CC2(N=C1N)c1cc(-c3cccnc3F)ccc1Oc1c2cc(C2=CCCOC2)nc1F (centres unmarked) [Example 16, 2′-amino-3-(5,6-dihydro-2H-pyran-3-yl)-1-fluoro-7-(2-fluoropyridin-3-yl)-1′-methyl-1′H-spiro[chromeno[2,3-c]pyridine-5,4′-pyrimidin]-6′(5′H)-one]
2.8 nM	223 nM	–	–	–	CN1C(=O)C[C@]2(N=C1N)c1cc(-c3cccnc3F)ccc1Oc1c2cc(C2=CCCOC2)nc1F [Example 17, (S)-2′-amino-3-(5,6-dihydro-2H-pyran-3-yl)-1-fluoro-7-(2-fluoropyridin-3-yl)-1′-methyl-1′H-spiro[chromeno[2,3-c]pyridine-5,4′-pyrimidin]-6′(5′H)-one]
–	3.1 nM	–	–	–	CN1C(=O)[C@]2(N=C1N)c1cc(-c3cccnc3F)ccc1Oc1c(F)cc(-c3ccnc(F)c3)cc12 [Example 39, (4S)-2-amino-4′-fluoro-7′-(2-fluoro-3-pyridinyl)-2′-(2-fluoro-4-pyridinyl)-1-methylspiro[imidazole-4,9′-xanthen]-5(1H)-one]
–	2380 nM	–	–	–	CN1C(=O)C[C@@]2(N=C1N)c1cc(-c3cccnc3F)ccc1Oc1cnc(-c3ccnc(F)c3)cc12 [Example 21-A, (R)-7-(2-Fluoropyridin-3-yl)-3-(2-fluoropyridin-4-yl)-2′-imino-1′-methyl-2′,3′-dihydro-1′H-spiro[chromeno[2,3-c]pyridine-5,4′-pyrimidin]-6′(5′H)-one]
–	290 nM	–	–	–	CN1C(=O)[C@@]2(N=C1N)c1cc(-c3cccnc3F)ccc1Oc1c(F)cc(-c3ccnc(F)c3)cc12 [Example 38, (4R)-2-amino-4′-fluoro-7′-(2-fluoro-3-pyridinyl)-2′-(2-fluoro-4-pyridinyl)-1-methylspiro[imidazole-4,9′-xanthen]-5(1H)-one]
–	99.5 nM	–	–	–	CN1C(=O)C[C@]2(N=C1N)c1cc(-c3cccnc3F)ccc1Oc1cnc(-c3ccnc(F)c3)cc12 [Example 21-B, (S)-7-(2-Fluoropyridin-3-yl)-3-(2-fluoropyridin-4-yl)-2′-imino-1′-methyl-2′,3′-dihydro-1′H-spiro[chromeno[2,3-c]pyridine-5,4′-pyrimidin]-6′(5′H)-one]

From patent publication US8957083B2, “Spiro-amino-imidazolone and spiro-amino-dihydro-pyrimidinone compounds as beta-secretase modulators and methods of use” (Amgen Inc., priority 2010, dated 2015)
